Results as given in US20210212959A1, “GIP ELEVATION INHIBITOR” (KAO CORPORATION, priority 2018, published 2021).

System: blood GIP level
Experiment: GIP elevation inhibitory activity of D-mannitol (single dietary test)
Assay type: in vivo, mice (C57BL/6J)
Experimental: Powdery feeds were prepared by using D-mannitol (manufactured by Kao Corp.) in accordance with the compositions listed in the following table and used as test samples. [table] Powdery feeds (Table 1) were weighed so as to have the same calories in each group and freely fed for 30 minutes to mice (C57BL/6J, CLEA Japan, Inc, male, 10-weeks old, n=10) fasted for 18 hours or more. During this free feeding, 200 mg of the feed was given to the high fat diet (HF) group; whereas, 216 mg of the feed to the D-mannitol group. Note that the calorie of D-mannitol was calculated as 0. Before feeding, and 30, 60 and 120 minutes after feeding a powdery-feed test sample, the mice were anesthetized with isoflurane, blood was sampled from the orbit (heparinized hematocrit micro blood collection tube, manufactured by VITREX) and the blood GIP level was measured. The amount of GIP was measured in accordance with ELISA method (Rat/Mouse GIP (total) ELISA (Millipore)). Each value was shown by mean±standard deviation. Statistically significant difference between the groups was obtained by applying Student's t-test to the HF group (*: p<0.05).

OC[C@@H](O)[C@@H](O)[C@H](O)[C@H](O)CO [D-mannitol]
inhibitory activity against GIP elevation (conclusion of single dietary test in mice): has an inhibitory activity against GIP elevation | blood GIP concentration value at 30 minutes after intake of the sample (mice C57BL/6J male, fasted 18 hours or more, 216 mg high fat powdery feed containing D-mannitol, compared to HF group, Student's t-test p<0.05, FIG. 1A): significantly low | area under the curve of GIP concentration up to 120 minutes after intake of the sample (mice C57BL/6J male, fasted 18 hours or more, 216 mg high fat powdery feed containing D-mannitol, compared to control (HF) group, p<0.05, FIG. 1B): significantly low
